Experiments:
Assay in all cases: Transient transactivation assay (XREM-Luc, HepG2)
Assay type in all cases: cell-based
Settings in all cases: 100 μM LCA
Medaka VDRα = Medaka VDRα (Oryzias latipes, UniProt B2CCA0)
Procedure: (§1) HepG2 cells (American Type Culture Collection #HB-8065) were cultured in T75 flasks with vented caps (Corning Life Sciences, Corning, NY) using Minimum Essential Medium (MEM) with phenol red supplemented with 10% fetal bovine serum, 1 mM sodium pyruvate, and 1X MEM non-essential amino acids. Cells were maintained following standard protocols in a 5% CO2 incubator set at 37°C, and split when 80–90% confluent.
(§2) For the transient transactivation assays, HepG2 cells were seeded in 96-well tissue culture plates at a density of 2.5x10^4 cells per well in complete phenol red-free MEM, and allowed to recover overnight. Transfections were performed the following day using Lipofectamine 2000 (Life Technologies, Grand Island, NY) as described previously. For functional comparisons, 89.7 ng/well of full-length pSG5-VDR was co-transfected with 19.2 ng/well human XREM-Luc reporter and 4.5 ng/well of pRL-CMV as an internal luciferase control. Coregulator studies included the addition of 18.3 ng/well of human coregulators (pCDNA-RXRWT, pCDNA-RXRAF2, pSG5-SRC1, pSG5-GRIP1 or pSG5-ACTR) where indicated. […] Controls include 120 nM 1,25D3 as a positive control, and ethanol as a vehicle control. Twenty-four hours post-exposure cells were tested for luciferase activity using the Dual-Glo Luciferase Assay System (Promega Corporation, Madison, WI) according to the manufacturer’s protocols. Luciferase data were first normalized to the pRL-CMV internal luciferase control. LCA-mediated VDR transactivation (fold activation) was calculated as the ratio of the VDR luciferase response relative to the empty vector control. To calculate the impact of coregulators on VDR transactivation, VDR response in the presence of coregulators was normalized to VDR alone. All experiments were repeated 3 times and conducted as groups of 4 replicate wells. VDR response in the absence of coregulators was analyzed using a 1-way ANOVA followed by Dunnett’s multiple comparisons test. To examine the effects of different coregulators on VDR activation, data were analyzed using a 2-way ANOVA followed by Bonferroni’s multiple comparisons test in GraphPad Prism (GraphPad Inc, San Diego, CA).

Medaka VDRβ = molecular target: T1, Medaka VDRβ (Oryzias latipes, UniProt B2CCA1)
T1 sequence (B2CCA1 1-425): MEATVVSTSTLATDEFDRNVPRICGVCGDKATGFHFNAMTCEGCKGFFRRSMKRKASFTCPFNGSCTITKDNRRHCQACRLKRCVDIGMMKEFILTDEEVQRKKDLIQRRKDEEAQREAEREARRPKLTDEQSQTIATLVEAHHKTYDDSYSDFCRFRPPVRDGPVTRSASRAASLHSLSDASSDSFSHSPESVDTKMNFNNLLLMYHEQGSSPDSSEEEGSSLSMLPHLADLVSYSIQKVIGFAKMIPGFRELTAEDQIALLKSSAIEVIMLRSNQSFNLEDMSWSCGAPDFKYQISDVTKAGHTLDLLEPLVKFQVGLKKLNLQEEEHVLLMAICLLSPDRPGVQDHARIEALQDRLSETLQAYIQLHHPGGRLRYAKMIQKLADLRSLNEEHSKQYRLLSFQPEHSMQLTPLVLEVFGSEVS
T1 sequence (P19793 1-462 partner): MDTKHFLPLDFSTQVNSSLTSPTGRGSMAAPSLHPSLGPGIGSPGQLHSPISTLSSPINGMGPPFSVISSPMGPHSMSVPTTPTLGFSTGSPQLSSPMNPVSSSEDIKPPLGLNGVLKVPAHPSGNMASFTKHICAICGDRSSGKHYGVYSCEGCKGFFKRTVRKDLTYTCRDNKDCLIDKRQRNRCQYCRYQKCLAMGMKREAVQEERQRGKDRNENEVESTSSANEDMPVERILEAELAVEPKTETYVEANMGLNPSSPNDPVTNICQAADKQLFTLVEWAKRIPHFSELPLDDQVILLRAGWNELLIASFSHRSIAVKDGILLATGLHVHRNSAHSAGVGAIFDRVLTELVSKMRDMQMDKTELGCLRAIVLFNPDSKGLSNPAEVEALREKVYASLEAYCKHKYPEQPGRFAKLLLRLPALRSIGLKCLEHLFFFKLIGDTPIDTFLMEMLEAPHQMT
Procedure: as §1, §2

Zebrafish VDRα = molecular target: T2, Zebrafish VDRα (Danio rerio, UniProt Q9PTN2)
T2 construct: 89.7 ng/well of full-length pSG5-VDR was co-transfected; expressed in transfected cells; host or cells: HepG2
T2 sequence (Q9PTN2 1-453): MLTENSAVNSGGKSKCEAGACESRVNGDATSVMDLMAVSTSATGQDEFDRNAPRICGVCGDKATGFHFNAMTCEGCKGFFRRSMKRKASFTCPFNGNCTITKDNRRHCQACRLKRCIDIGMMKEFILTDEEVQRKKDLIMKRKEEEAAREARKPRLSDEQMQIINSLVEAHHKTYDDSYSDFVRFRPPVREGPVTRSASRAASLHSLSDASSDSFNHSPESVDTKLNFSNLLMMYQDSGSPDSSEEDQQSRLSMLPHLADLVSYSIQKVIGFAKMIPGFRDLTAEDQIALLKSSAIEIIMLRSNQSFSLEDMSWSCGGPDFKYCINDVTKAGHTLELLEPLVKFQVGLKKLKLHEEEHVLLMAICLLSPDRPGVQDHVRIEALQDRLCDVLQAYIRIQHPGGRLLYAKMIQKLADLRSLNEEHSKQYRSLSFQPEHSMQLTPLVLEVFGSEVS
Procedure: as §1, §2

[1] = co-transfected human RXRWT, vs VDR alone
[2] = compared to either coregulator individually

Chain of Medaka VDRα (B2CCA0 entry or part of it, one chain of several): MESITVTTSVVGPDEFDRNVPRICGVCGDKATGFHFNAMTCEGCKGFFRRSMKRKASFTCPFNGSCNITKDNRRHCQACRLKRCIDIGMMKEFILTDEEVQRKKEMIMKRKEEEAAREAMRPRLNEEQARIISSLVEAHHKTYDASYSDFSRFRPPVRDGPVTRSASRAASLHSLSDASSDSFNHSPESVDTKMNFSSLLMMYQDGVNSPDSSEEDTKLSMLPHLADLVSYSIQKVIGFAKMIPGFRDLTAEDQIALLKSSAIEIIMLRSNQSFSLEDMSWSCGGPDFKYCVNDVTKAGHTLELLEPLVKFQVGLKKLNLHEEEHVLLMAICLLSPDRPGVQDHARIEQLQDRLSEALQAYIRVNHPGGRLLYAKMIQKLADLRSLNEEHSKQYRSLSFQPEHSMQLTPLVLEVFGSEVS

## C[C@H](CCC(=O)O)[C@H]1CC[C@H]2[C@@H]3CC[C@@H]4C[C@H](O)CC[C@]4(C)[C@H]3CC[C@]12C [LCA, 5β-cholanic acid-3α-ol]
Medaka VDRα; [1]
  Effect of exogenous human RXRWT on VDR transactivation: significantly enhanced transactivation
Medaka VDRα; [2]
  Effect of RXRWT+SRC1 or RXRWT+GRIP1 on VDR transactivation: significantly enhanced VDR transactivation
Medaka VDRβ; [1]
  Effect of exogenous human RXRWT on VDR transactivation: significantly enhanced transactivation
Medaka VDRβ; [2]
  Effect of RXRWT+SRC1 or RXRWT+GRIP1 on VDR transactivation: significantly enhanced VDR transactivation
Zebrafish VDRα; [1]
  Effect of exogenous human RXRWT on VDR transactivation: significantly enhanced transactivation
Zebrafish VDRα; [2]
  Effect of RXRWT+SRC1 or RXRWT+GRIP1 on VDR transactivation: significantly enhanced VDR transactivation

— publication PMC5152921, “Evolutionary and Functional Diversification of the Vitamin D Receptor-Lithocholic Acid Partnership” (PLoS ONE, 2016)
